{"source": "patent EP0152542A1", "about": "“Pyrrol-3-carboxylic acids having central analgesic activity” (POLI INDUSTRIA CHIMICA S.p.A., priority 1983, dated 1985)", "key": {"mice": {"system": "mice", "experiment": "Phenylquinone test in mice (analgesic activity)", "assay_type": "in vivo", "conditions": "Mus musculus", "procedure": "(§1) The analgesic activity of the compounds of for mula I, administered by the oral route has been determined by means of the following tests: • - Phenylquinone test in mice (Hendershot and Forsa ith - J. Pharmacol. Exp. Ther. 123, 237 (1959)) • - Hot plate test - Male albino mice, treated with increasing doses of the compound under test, are placed on a thermostatized plate at 55°C. The time necessary for the mouse to react to the painful stimulus is then measured. An effective dose 50 (ED50) is defined as the dose inducing a 50% increase of the reaction time, with respect to control animals. • - The acute toxicity per os has been studied in the mouse and in the rat and expressed as LD50 at the 14th observation day."}, "Male albino mice": {"system": "Male albino mice", "experiment": "Hot plate test (thermostatized plate at 55°C, reaction time to painful stimulus)", "assay_type": "in vivo", "conditions": "Mus musculus"}, "[1]": {"experiment": "Acute toxicity per os in the mouse (LD50 at the 14th observation day)", "conditions": "in vivo, po", "procedure": "as §1"}, "[2]": {"experiment": "Acute toxicity per os in the rat (LD50 at the 14th observation day)", "conditions": "in vivo, po", "procedure": "as §1"}, "[3]": {"system": "cyclooxygenase and the prostaglandinsynthetase", "conditions": "known compound, background statement; cited from earlier work"}, "[4]": {"conditions": "mice, oral, read-out: PHENYLQUINONE ED50 OS"}, "[5]": {"conditions": "sc, S.C., ED50 = dose inducing a 50% increase of the reaction time versus controls, plate at 55°C, read-out: HOT PLATE ED50 S.C. MICE"}}, "note": "Where two headings read alike, the source gives them in different places."}
{"compound": "Cc1c(C(=O)O)c(C)n(C)c1C(=O)c1ccc(Cl)c(Cl)c1", "note": "[R=CH3, R1=Cl, R2=Cl, R3=H]", "values": [{"measurement": "ED50", "setting": "mice; [4]", "result": 7.5, "unit": "mg/kg"}, {"measurement": "ED50", "setting": "Male albino mice; [5]", "result": 4.7, "unit": "mg/kg"}, {"measurement": "LD50 at 336 h", "setting": "[1]; read-out: LD50 MICE OS", "result": 800, "unit": "mg/kg"}, {"measurement": "LD50 at 336 h", "setting": "[2]", "result": "> 1600", "unit": "mg/kg"}]}
{"compound": "Cc1c(C(=O)O)c(C)n(C)c1C(=O)c1ccc(Cl)cc1", "note": "[R=CH3, R1=Cl, R2=H, R3=H, reference compound]", "values": [{"measurement": "ED50", "setting": "mice; [4]", "result": 4.6, "unit": "mg/kg"}, {"measurement": "ED50", "setting": "Male albino mice; [5]", "result": 2.3, "unit": "mg/kg"}, {"measurement": "LD50 at 336 h", "setting": "[1]; read-out: LD50 MICE OS", "result": 800, "unit": "mg/kg"}, {"measurement": "LD50 at 336 h", "setting": "[2]", "result": "> 1600", "unit": "mg/kg"}]}
{"compound": "CCCCn1c(C)c(C(=O)O)c(C)c1C(=O)c1ccc(Cl)cc1", "note": "[R=C4H9, R1=Cl, R2=H, R3=H]", "values": [{"measurement": "ED50", "setting": "mice; [4]", "result": 6.3, "unit": "mg/kg"}, {"measurement": "ED50", "setting": "Male albino mice; [5]", "result": 2.9, "unit": "mg/kg"}, {"measurement": "LD50 at 336 h", "setting": "[1]; read-out: LD50 MICE OS", "result": 1300, "unit": "mg/kg"}, {"measurement": "LD50 at 336 h", "setting": "[2]", "result": "> 1600", "unit": "mg/kg"}]}
{"compound": "Cc1c(C(=O)O)c(C)n(Cc2ccccc2Cl)c1C(=O)c1ccc(Cl)cc1", "values": [{"measurement": "ED50", "setting": "mice; [4]", "result": 10.8, "unit": "mg/kg"}, {"measurement": "ED50", "setting": "Male albino mice; [5]", "result": 5.5, "unit": "mg/kg"}, {"measurement": "LD50 at 336 h", "setting": "[1]; read-out: LD50 MICE OS", "result": 1200, "unit": "mg/kg"}, {"measurement": "LD50 at 336 h", "setting": "[2]", "result": "> 1600", "unit": "mg/kg"}]}
{"compound": "Cc1c(C(=O)O)c(C)n(Cc2ccccc2)c1C(=O)c1ccc(Cl)cc1", "values": [{"measurement": "ED50", "setting": "mice; [4]", "result": 7.6, "unit": "mg/kg"}, {"measurement": "ED50", "setting": "Male albino mice; [5]", "result": 4.8, "unit": "mg/kg"}, {"measurement": "LD50 at 336 h", "setting": "[1]; read-out: LD50 MICE OS", "result": 1500, "unit": "mg/kg"}, {"measurement": "LD50 at 336 h", "setting": "[2]", "result": "> 1600", "unit": "mg/kg"}]}
{"compound": "Cc1c(C(=O)O)c(C)n(C)c1C(=O)c1ccc(Cl)cc1Cl", "note": "[R=CH3, R1=Cl, R2=H, R3=Cl, 1,2,4-Trimethyl-5-(2,4-dichlorobenzoyl)-pyrrol-3-carboxylic acid]", "values": [{"measurement": "ED50", "setting": "mice; [4]", "result": 10.9, "unit": "mg/kg"}, {"measurement": "ED50", "setting": "Male albino mice; [5]", "result": 5.7, "unit": "mg/kg"}, {"measurement": "LD50 at 336 h", "setting": "[1]; mice, per os, 14th observation day, read-out: LD50 MICE OS", "result": 1400, "unit": "mg/kg"}, {"measurement": "LD50 at 336 h", "setting": "[2]; per os, 14th observation day", "result": 1700, "unit": "mg/kg"}]}
{"compound": "COc1ccc2c3c1O[C@H]1[C@@H](O)C=C[C@H]4[C@@H](C2)N(C)CC[C@@]341.Cl", "note": "[codeine hydrochloride, reference compound]", "values": [{"measurement": "ED50", "setting": "mice; po, read-out: ED50 phenylquinone", "result": 5.6, "unit": "mg/kg"}, {"measurement": "ED50", "setting": "Male albino mice; comparison compound, route not given, read-out: ED50 hot plate", "result": 25, "unit": "mg/kg"}, {"measurement": "LD50 at 336 h", "setting": "[1]; comparison compound, per os, read-out: LD50 mouse per os", "result": 300, "unit": "mg/kg"}]}
{"compound": "Cc1ccc(C(=O)c2c(C)c(C(=O)O)c(C)n2C)cc1", "note": "[R=CH3, R1=CH3, R2=H, R3=H]", "values": [{"measurement": "ED50", "setting": "mice; [4]", "result": 10, "unit": "mg/kg"}, {"measurement": "ED50", "setting": "Male albino mice; [5]", "result": "> 10", "unit": "mg/kg"}, {"measurement": "LD50 at 336 h", "setting": "[1]; read-out: LD50 MICE OS", "result": 1400, "unit": "mg/kg"}, {"measurement": "LD50 at 336 h", "setting": "[2]", "result": "> 1600", "unit": "mg/kg"}]}
{"compound": "COc1ccc(C(=O)c2c(C)c(C(=O)O)c(C)n2C)cc1", "note": "[R=CH3, R1=OCH3, R2=H, R3=H]", "values": [{"measurement": "ED50", "setting": "mice; [4]", "result": 8.4, "unit": "mg/kg"}, {"measurement": "ED50", "setting": "Male albino mice; [5]", "result": 7.6, "unit": "mg/kg"}, {"measurement": "LD50 at 336 h", "setting": "[1]; read-out: LD50 MICE OS", "result": "> 1600", "unit": "mg/kg"}, {"measurement": "LD50 at 336 h", "setting": "[2]", "result": "> 1600", "unit": "mg/kg"}]}
{"compound": "Cc1cc(CC(=O)O)n(C)c1C(=O)c1ccc(Cl)cc1", "note": "[Zomepirac, 5-(p-chlorobenzoyl)-1,4-dimethyl-pyrrol-2-acetic acid]", "values": [{"measurement": "inhibits the cyclooxygenase and the prostaglandinesynthetase", "setting": "[3]", "result": "inhibits"}]}
